Assay [1] concerns PC3 (AR negative prostate Ca). Briefly: Cell cytotoxicity analysis (MTT), PC3. The format is cell-based. The settings on record: Homo sapiens, 120 h, PC3, five days. From the text:
(§1) The method of Alley et al. (1988) was followed. Briefly, prior to cytotoxicity screening a growth curve was constructed for each tumour line to be screened to determine growth kinetics, optimal seeding density to yield logarithmic growth over five days, and the corresponding lag time. Spent culture medium was aspirated from a sub-confluent adherent monolayer culture (T-75), the cells trypsinised and resuspended in a minimal volume of culture medium. After counting cells, a 96-well plate was seeded at an appropriate density (100 μl) to yield optimal growth parameters and the plate was then incubated at 37° C. under 5% CO2. After the pre-determined lag-time the plate was treated with either vehicle (negative control) or serial dilutions of the test compound prepared in culture medium, and then incubated for a further five days. MTT (0.5 mg/ml) prepared in PBS was added to all wells and incubated at 37° C. for ˜3 hr. Spent medium was then carefully aspirated and DMSO (150 μt) was added to solubilise cells and the reduced formazan. Absorbance was then read on a SpectraMax plate reader at 570 nm and viable cells in treated plates were expressed as a percentage of cells in control plates.

In assay [2] the test system is LNCaP (AR positive Prostate Ca). Briefly: Cell cytotoxicity analysis (MTT), LNCaP. The format is cell-based. The note with it: Homo sapiens.
Source text: as §1

Assay [3] deals with DU145 (AR negative prostate Ca). Briefly: Cell cytotoxicity analysis (MTT), DU145. The format is cell-based. The note with it: Homo sapiens.
Source text: as §1

In assay [4] the test system is MDA-MB-468 (ER negative breast Ca). Kind of assay: Cell cytotoxicity analysis (MTT), MDA-MB-468. The format is cell-based. The settings on record: Homo sapiens, 120 h, MDA-MB-468, five days.
Source text: as §1

For assay [5], the system named is NCI-H460 (large cell lung Ca). Briefly: Cell cytotoxicity analysis (MTT), NCI-H460. The format is cell-based. The settings on record: Homo sapiens.
Source text: as §1

Assay [6] concerns testosterone-induced LNCaP proliferation. Briefly: Androgen inhibition study: testosterone-induced LNCaP proliferation. The format is cell-based, human. The note with it: for IC50: Homo sapiens, LNCaP; for fold better than Cpd. 1 at inhibiting testosterone-induced proliferation: relative to Cpd. 1. The procedure: The method of Negri-Cesi and Motta (1994) and Negri-Cesi et al. (1999) was followed. Briefly, LNCaP cells were cultured in RPMI supplemented with 10% fetal calf serum and 2 mM L-glutamine at 37° C. under 5% CO2. At day 0 a subconfluent LNCaP culture flask (80%) were harvested by trypsinisation, washed, resuspended in RPMI media completed with charcoal stripped fetal calf serum (RPMIi) and seeded into 12 well plates at 30,000 cells per well (15,000 cells/mL). The plates were cultured at 37° C. with 5% CO2 for 48 hours. On day 2, spent media was carefully aspirated from all plates and then replenished with 2 ml RPMIi containing either testosterone (0.5 pM) as positive control, testosterone plus finasteride (1 uM) as inhibitor control and vehicle as growth control (equivalent concentration of DMSO). Test plates were treated as described above; only serial dilutions of test compounds prepared in RPMIi were used. Concentrations of test compound were chosen based on their cytotoxicity profile as determined in the cell cytotoxicity analysis methods section above i.e. the top concentration used in the LNCaP proliferation assay was determined as the concentration at which cells first appear close to 100% viable along the cytotoxicity curve. This concentration was chosen to ensure that any inhibition of proliferation imparted by the test agent was due to the inhibition of 5′AR and not due to direct killing of the cells. It is important not to disturb cell monolayer during the addition of treatments. On days 5 and 8 the process followed on day 2 was repeated for all plates. On day 11 spent media was aspirated from all wells, cells were washed gently with PBS (500 μl), trypsinised and the cells in each well counted using a haemocytometer. The average cell count and standard deviation was calculated and the result expressed as the % inhibition of testosterone-induced proliferation in comparison with vehicle control.

The subject of a further assay is COX. Kind of assay: COX inhibition screening assay in LPS-stimulated monocytes (prostaglandin radioimmunoassay). The format is cell-based. The note with it: 10 μM, human monocytes. The procedure: (§2) Human buffy coats were obtained from the Red Cross Blood Bank. Buffy coat (50 ml) was diluted 1:2 with sterile phosphate buffered saline (PBS), overlayed onto Lymphoprep density gradient medium and centrifuged at 800 g for 20 min. The mononuclear cell (MNC) layer was removed and washed with PBS and monocyte enriched cells were prepared from MNC by counter-current centrifugal elutriation. Monocytes were then resuspended in RPMI tissue culture medium with 10% foetal calf serum at 1.5×10^6 cells/ml. Test analogues were prepared in DMSO and incubated with monocytes at 37° for 30 min at either 10 or 100 μM. After the 30 min pre-incubation, bacterial lipopolysaccharide (LPS) was added (200 ng/ml) and cells were incubated for a further 18 h at 37° in 5% CO2. After centrifugation, cell-free supernatants were then removed and assayed for either prostaglandin or thromboxane production, as determined by radioimmunoassay. Because TXA2 is labile in aqueous medium, TXB2, the stable hydrolysis product of TXA2, was measured. For each dose (0, 10, 100 μM), incubations were performed in triplicate. Results are expressed as mean±SD, n=3. ANOVA followed by Newman-Keuls multiple comparisons test was used to examine differences between doses and the control values.

For the next assay, the target named is T1, thromboxane synthase (Homo sapiens, UniProt P24557).
T1 construct: endogenous in cells; host or cells: human peripheral blood monocytes (elutriated from buffy coat), LPS-stimulated
T1 sequence (P24557 1-533): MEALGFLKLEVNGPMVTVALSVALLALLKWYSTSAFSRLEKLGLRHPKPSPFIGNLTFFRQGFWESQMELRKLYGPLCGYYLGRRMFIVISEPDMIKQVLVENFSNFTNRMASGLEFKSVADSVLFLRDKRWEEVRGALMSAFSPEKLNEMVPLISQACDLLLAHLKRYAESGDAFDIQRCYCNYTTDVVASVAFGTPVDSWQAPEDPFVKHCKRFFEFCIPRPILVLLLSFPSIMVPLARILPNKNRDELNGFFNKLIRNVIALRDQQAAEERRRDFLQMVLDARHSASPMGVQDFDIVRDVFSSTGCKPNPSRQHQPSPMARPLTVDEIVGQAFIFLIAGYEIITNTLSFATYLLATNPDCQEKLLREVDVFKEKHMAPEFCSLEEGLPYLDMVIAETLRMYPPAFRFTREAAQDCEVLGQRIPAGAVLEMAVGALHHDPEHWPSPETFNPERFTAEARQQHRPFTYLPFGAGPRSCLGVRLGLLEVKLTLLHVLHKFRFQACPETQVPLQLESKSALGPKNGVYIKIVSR
Briefly: Thromboxane synthase inhibition screening assay in LPS-stimulated monocytes (TXB2 radioimmunoassay). The format is cell-based. Here is the method:
as §2

A further assay has as its system all cell lines tested. Kind of assay: Cell cytotoxicity analysis (MTT), statements over the cell lines tested. The settings on record: for overall cell killing activity against all cell lines tested: comparison of Cpd. 1, 2 and 3. The format is cell-based, human.
Source text: as §1

Setting [7] is: 120 h, LNCaP, five days, MTT, read-out: Cytotoxicity LNCaP Avg.
The mark [8] stands for this setting: 120 h, DU-145, five days, MTT, read-out: Cytotoxicity DU-145 Avg.
Setting [9] is: DU-145, read-out: IC50 against DU-145.
Where [10] appears, read: 120 h, NCI-H460, five days, MTT, read-out: Cytotoxicity NCI-H460 Avg.
Where [11] appears, read: read-out: IC50 inhibition of testosterone-induced LNCaP proliferation.
Where [12] appears, read: read-out: IC50 inhibition of testosterone-induced proliferation.

Consider four compounds from patent US7714151B2, “Aminated isoflavonoid derivatives and uses thereof” (Novogen Research Pty Ltd, priority 2002, dated 2010).

Like-named read-outs stand apart in the source and are kept apart here. Bounds are passed on as bounds.

Turning to `Oc1ccc(C2COc3cc(O)ccc3C2=NNc2ccccc2)cc1` (stereo not shown) [Cpd. 1], the IC50 is 33.9 µM in assay [1]; 16.2 µM in assay [2] (setting [7]); 16.2 µM in assay [2] (read-out: IC50 against LNCaP); 13.8 µM in assay [3] (setting [8]); 13.8 µM in [3] (setting [9]); 34.9 µM in assay [4]. Also, the IC50 in assay [5] (setting [10]) was 27.6 µM; in assay [6] (setting [11]), 2250 nM; in assay [6] (setting [12]), 2250 nM; with all cell lines tested (Homo sapiens, cell lines other than LNCaP and DU-145, read-out: Modest activity against the other cell lines tested) it was over 20 µM. Also, the “inhibition of COX activity” value in the assay on COX was determined as 100%. Further, at thromboxane synthase, the inhibition at 10 µM is 33%.
`O=[N+]([O-])c1ccc(NN=C2c3ccc(O)cc3OCC2c2ccc(O)cc2)cc1` (stereo not shown) [Cpd. 2]: the IC50 is 44.8 µM in assay [1]; 50.9 µM in assay [2] (setting [7]); 46 µM in [3] (setting [8]); 26.1 µM in assay [4]; 32.7 µM in assay [5] (setting [10]); under 35 nM in [6] (setting [11]). Besides, the IC50 in assay [6] (read-out: IC50 inhibition of testosterone-induced proliferation (nM)) was under 37 nM. Moreover, in [6], the “fold better than Cpd. 1 at inhibiting testosterone-induced proliferation” value is reported as about 60 fold. For the same compound, the “inhibition of COX activity” value with COX is listed as 77%. This compound yielded an inhibition at 10 µM against thromboxane synthase of 27%. Further, the “overall cell killing activity against all cell lines tested” value in the assay on all cell lines tested is given as “lowest activity”.
For the compound `Cc1ccc(NN=C2c3ccc(O)cc3OCC2c2ccc(O)cc2)cc1` (stereo not shown) [Cpd. 3], the IC50 came out at 27.9 µM in assay [1]; 16.2 µM in assay [2] (setting [7]); 16.3 µM in assay [2] (read-out: IC50 against LNCaP); 19.1 µM in assay [3] (setting [8]); 19.2 µM in [3] (setting [9]); 22.4 µM in assay [4]. In addition, the IC50 in assay [5] (NCI-H460, read-out: activity against NCI-H460) is 13.3 µM; in assay [6] (setting [11]), 680 nM; in assay [6] (setting [12]) it was 680 nM. In addition, in assay [6], the “fold better than Cpd. 1 at inhibiting testosterone-induced proliferation” value is reported as 3 fold. Besides, the “inhibition of COX activity” value in the assay with COX is 100%. The same compound had an inhibition at 10 µM at thromboxane synthase of 60%. The “overall cell killing activity against all cell lines tested” value with all cell lines tested was “best overall cell killing activity”.
Regarding `CC(C)(C)NC(=O)[C@H]1CC[C@H]2[C@@H]3CC[C@H]4NC(=O)C=C[C@]4(C)[C@H]3CC[C@]12C` [finasteride, reference compound], the “blocking of testosterone-induced proliferation” value in assay [6] (1 μM, inhibitor control) is listed as “potently blocked”.

A word on the inhibition: it is how much of the control response was suppressed. A lower inhibition goes with little suppression.
